The source of these data is PubChem BioAssay AID434951 (Broad Institute, 2010).

Calls of active or inactive are those of the source.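 How the source made its calls: active means a fitted half-maximal concentration EC50 for the rise in nuclear signal no higher than ten times the top dose tested; inconclusive means flat fit with activity between 30% and 70%, or unusable fit; inactive means EC50 beyond ten times the top dose.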

Hypoxia-inducible factor 1-alpha (Homo sapiens), sequence (Q16665 whole entry, looked up): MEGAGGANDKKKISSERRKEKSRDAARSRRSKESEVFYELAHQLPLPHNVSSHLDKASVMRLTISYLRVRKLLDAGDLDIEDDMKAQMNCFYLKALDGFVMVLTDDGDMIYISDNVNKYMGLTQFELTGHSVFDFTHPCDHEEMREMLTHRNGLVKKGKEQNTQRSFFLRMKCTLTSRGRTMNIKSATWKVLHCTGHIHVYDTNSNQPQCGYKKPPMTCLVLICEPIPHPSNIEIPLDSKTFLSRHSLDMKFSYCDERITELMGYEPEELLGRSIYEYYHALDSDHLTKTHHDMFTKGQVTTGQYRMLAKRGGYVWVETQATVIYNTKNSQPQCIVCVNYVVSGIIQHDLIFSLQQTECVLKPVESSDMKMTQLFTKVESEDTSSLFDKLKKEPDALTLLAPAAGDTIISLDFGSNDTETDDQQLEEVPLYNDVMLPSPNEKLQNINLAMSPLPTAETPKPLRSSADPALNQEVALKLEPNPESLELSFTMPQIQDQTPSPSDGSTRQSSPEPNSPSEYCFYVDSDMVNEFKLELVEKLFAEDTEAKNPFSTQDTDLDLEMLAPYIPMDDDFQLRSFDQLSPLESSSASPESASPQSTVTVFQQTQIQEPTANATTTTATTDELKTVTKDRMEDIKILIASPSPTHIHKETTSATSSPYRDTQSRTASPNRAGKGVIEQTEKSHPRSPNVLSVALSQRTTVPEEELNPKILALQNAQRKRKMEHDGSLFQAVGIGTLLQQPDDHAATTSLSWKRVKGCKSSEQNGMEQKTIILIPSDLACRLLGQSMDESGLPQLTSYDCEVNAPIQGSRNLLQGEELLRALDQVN

This test concerns the target Hypoxia-inducible factor 1-alpha (Homo sapiens) (UniProt Q16665). Put plainly: activators of HIF1alpha nuclear accumulation, confirmation, imaging, fluorescence, U2OS GFP-HIF1alpha (AID 434951). The note with it: U2OS GFP-HIF1alpha nuclear intensity, high-content imaging.
As a reminder, the EC50 is the concentration at which the effect is half-maximal. Take `Nc1nc(SCC(=O)N2CCCC2)[nH]c(=O)c1-c1ccccc1`: the EC50 is > 35 µM (inactive).
Consider `CC(C)[C@H](NC(=O)c1ccco1)C(=O)OCc1cc(=O)n2c(n1)sc1ccccc12`, for which the EC50 is > 35 µM (inactive).
The same measure for `Cc1cccc(-c2noc(CN(C)S(=O)(=O)c3cc(Cl)ccc3Cl)n2)c1`: > 35 µM (inactive); for `FC(F)(F)c1cnc(N2CCN(C(=S)NCc3ccccc3)CC2)c(Cl)c1`: > 35 µM (inactive).
For `COc1ccc(O)c(/C=N/NC(=S)Nc2cccc(S(=O)(=O)N(C)C)c2)c1`, the EC50 is > 35 µM (inactive).
Take `C/C(=N\Nc1ccc2nncn2n1)c1ccccn1`: the EC50 is 3.84 µM.
Take `CCOC(=O)c1cnc(-n2nc(C)cc2C)nc1NNc1nc(-c2ccccc2)cc(-c2ccccc2)n1`: the half-maximal effective concentration (EC50) was 1.81 µM.
For the compound `Oc1ccc(CN2CCN(Cc3ccccc3)CC2)c2cccnc12`, the EC50 was > 35 µM (inactive).
Regarding `O=C(NNC(=S)Nc1ccc(Cl)c(Cl)c1)c1ccccn1`, the concentration for a half-maximal effect (EC50) was 6.71 µM.
For the compound `COc1ccc(CCNC(=O)c2cc(-c3ccco3)on2)cc1OC`, the EC50 is 10.8 µM.
On to `COc1ccc(CCNC(=O)c2cc(-c3cccs3)on2)cc1OC`, for which the EC50 is 7.39 µM.
As for `CCCn1c(=NC(=O)c2c(-c3c(F)cccc3Cl)noc2C)c(C(=O)OCC)cc2c(=O)n3ccccc3nc21`, the EC50 was 22.2 µM.
The same measure for `COc1cccc(/C=N/Nc2nc3ccccc3[nH]2)c1O`: 13.1 µM; for `Cc1ccc2nc(SCC(=O)c3ccccc3)nc(=O)n2c1`: > 35 µM (inactive).
Regarding `Cc1cc(C)c2nc(N3CCN(C(=O)c4ccco4)CC3)sc2c1`, the EC50 was > 35 µM (inactive).
As to `C=CCc1c(C)nc2c(-c3ccccc3)cnn2c1N1CCOCC1`, the EC50 was > 35 µM (inactive).
As to `O=C(Nc1ncccc1O)c1ccc(S(=O)(=O)Nc2ccccc2)cc1`, the EC50 is 9.18 µM.
The value for `O=C(NCCSc1c[nH]c2ccccc12)c1ccc(Br)o1` was > 35 µM (inactive).
For the compound `CC(C)C(=O)N1CCN(c2nc3ccc(Cl)cc3s2)CC1`, the EC50 is > 35 µM (inactive).
The value for `Cc1ccc(C(=O)Nc2ccc3c(c2)nc(CCNC(=O)c2ccco2)n3C)cc1` was > 35 µM (inactive); that for `COc1cnc(-c2ccccn2)nc1N(C)c1ccccc1` was 9.27 µM.
The same measure for `Oc1c(C(Nc2nc3ccccc3s2)c2ccco2)ccc2cccnc12` (stereo not given): 7.1 µM.
On to `N#C/C(=C(/O)c1ccc(F)cc1)c1nc2ccccc2s1`, for which the EC50 was > 35 µM (inactive).
The same measure for `CCCC(C)NC(=O)CN1C(=O)NC2(CCc3ccccc32)C1=O` (stereo not given): > 35 µM (inactive).
The same measure for `CCN(CC)c1ccc(/C=N/NC(=O)c2ccc3nc[nH]c3c2)c(O)c1`: 10.5 µM; for `O=C(CCc1ccccc1)N/N=C/c1cc(Br)ccc1O`: 13.2 µM; for `Oc1c(CN2CCCCC2)cc(COCc2ccccc2)c2cccnc12`: 11.9 µM.
`O=C(CNC(=O)c1ccccc1Br)N/N=C/c1cc(Br)ccc1O`: the EC50 was 6.52 µM.
The same measure for `CC(=O)N1CCC(=NNC(=O)c2cc3ccccc3cc2O)CC1`: > 35 µM (inactive); for `O=c1[nH]c(C2CCN(S(=O)(=O)c3ccc(C(F)(F)F)cc3)CC2)nc2c1nnn2Cc1ccc(F)cc1`: > 35 µM (inactive).
The same measure for `COC(=O)C1=C(C)N(C)C(=O)NC1c1cc(Cl)c(O)c(OC)c1` (stereo not given): > 35 µM (inactive); for `COc1ccccc1N(CC(=O)NC1CCCCC1)S(C)(=O)=O`: > 35 µM (inactive); for `COc1ccccc1C(c1nnnn1CC1CCCO1)N1CCC(C(N)=O)CC1` (stereo not given): > 35 µM (inactive).
On to `COc1cc(C(=O)NCCc2nc3ccccc3n2C)cc(OC)c1OC`, for which the EC50 is > 35 µM (inactive).
In the case of `COc1ccc(CCNc2nncc(=O)[nH]2)cc1OC`, the EC50 was > 35 µM (inactive).
The same measure for `CCOc1ccc(CCNC(=O)COC(=O)Cn2nc(C)c([N+](=O)[O-])c2C)cc1OCC`: > 35 µM (inactive); for `COc1cccc(C2C3=C(N=c4s/c(=C\c5ccccc5O)c(=O)n42)c2ccccc2CC3)c1OC` (stereo not given): > 35 µM (inactive).
In the case of `Cc1ccc(C2(C)NC(=O)N(CC(=O)Nc3ccccc3N3CCCC3)C2=O)cc1` (stereo not given), the EC50 is > 35 µM (inactive).
On to `CN1CCN(Cc2nc3ccccc3c(=O)n2Cc2nc(-c3ccccc3F)cs2)CC1`, for which the EC50 is 8.66 µM.
The same measure for `O=C(O)c1ccccc1OCCOc1ccccc1C(=O)O`: > 35 µM (inactive); for `CCCCNC(=S)Nc1ccc2cn[nH]c2c1`: > 35 µM (inactive); for `COc1ccccc1NC(=O)CN(C)S(=O)(=O)c1cccc2cccnc12`: > 35 µM (inactive).
Consider `O=C(O)c1cccnc1SCc1ccccc1Cl`, for which the EC50 was > 35 µM (inactive).
For `CCOc1cc(/C=N/NC(=O)c2cccnc2)ccc1OCc1ccc(C(=O)OC)o1`, the EC50 is > 35 µM (inactive).
`CN1CCN(C2Cc3ccc(F)cc3Sc3cc(F)c(Cl)cc32)CC1` (stereo not given): the EC50 is > 35 µM (inactive).
The value for `O=C(C1=C[C@@H](C2CC2)C[C@@H](OCCCCO)O1)N1CCN(Cc2ccc3c(c2)OCO3)CC1` was > 35 µM (inactive).
The value for `COC(=O)c1ccc(CSc2nc3c(c(=O)n2-c2ccc(F)cc2)SCC3)o1` was > 35 µM (inactive).
On to `CCOC(=O)C1=C(c2ccccc2)NC(=O)NC1c1ccc(O)c(Cl)c1` (stereo not given), for which the EC50 is 12.7 µM.
The value for `O=C(CSc1ccc(-c2ccccn2)nn1)Nc1nccs1` was 10.6 µM; that for `COc1ccc2nc(NC(=O)Nc3ccccc3OC)sc2c1` was > 35 µM (inactive); that for `CC(C)N(c1ccccc1)c1ncnc(NCCC(=O)O)c1[N+](=O)[O-]` was > 35 µM (inactive).
In the case of `Cc1sc(NC(=O)c2ccco2)c(CN2CCC(C)CC2)c1C`, the EC50 was > 35 µM (inactive).
The value for `Cc1ccc(-c2nnc(Sc3nc4ccccc4o3)c3ccccc23)cc1` was 16.9 µM; that for `CS(=O)(=O)n1nc(-c2ccccc2)nc1NCc1ccco1` was > 35 µM (inactive).
The same measure for `COc1cc2ncnc(NCc3cccs3)c2cc1OC`: > 35 µM (inactive); for `COc1ccc(N2CCN(C(=O)COc3ccc4c(C)c(C)c(=O)oc4c3C)CC2)cc1`: > 35 µM (inactive); for `CCCCOC(=O)c1ccc(NC(=O)C(=O)NCc2cccnc2)cc1`: > 35 µM (inactive).
The same measure for `Cc1ccc(-c2csc3nc(SCC(=O)N(C)C)n(Cc4ccccc4)c(=O)c23)cc1`: 5.26 µM; for `Oc1[nH]c2ccccc2c1N=NC(=S)N1CCOCC1`: 8 µM; for `O=C(Cn1nc(-c2ccccc2Cl)ccc1=O)Nc1ccccc1-c1ccccc1`: > 35 µM (inactive).
As for `OCCC#Cc1ccc(CN2CCN(Cc3ccccc3)C(CCO)C2)cc1` (stereo not given), the EC50 was > 35 µM (inactive).
The value for `CCN(CC)CCNc1cc(C)nc2c1C(=O)C(=O)C=C2N1CCCCC1` was 3.63 µM.
The same measure for `COCCNC(=O)C(=O)NCC1OCCN1S(=O)(=O)c1cc(F)ccc1F` (stereo not given): > 35 µM (inactive).
On to `CCN(Cc1ccccc1)C(=O)CCNS(=O)(=O)c1ccc2c(c1)CC(C)N2C(C)=O` (stereo not given), for which the EC50 is > 35 µM (inactive).
For the compound `Cc1ccc(N=Nc2ccc(O)c(/C=N\NC(=O)c3ccc(N)cc3)c2)cc1C`, the EC50 was > 35 µM (inactive).
For the compound `Cc1cccc(OCC(=O)NCC(=O)N/N=C/c2cccnc2)c1`, the EC50 was > 35 µM (inactive).
The same measure for `COc1ccc(C(=O)NCCCOC(=O)c2ccc(OC)cc2)cc1`: > 35 µM (inactive); for `COc1ccc2cc(C(C)C(=O)N3CCC(C(N)=O)CC3)ccc2c1` (stereo not given): > 35 µM (inactive).
The same measure for `COc1ccccc1C/C(N)=N/O`: > 35 µM (inactive); for `CN(C)C=NC(=O)c1cn(-c2ccc(F)cc2)c(=O)c2ccccc12`: > 35 µM (inactive); for `Cc1ccc(CNc2ccc3c(c2)nc(C)n3C)cc1`: > 35 µM (inactive).
The same measure for `Cc1nc2ccccc2nc1N/N=C/c1ccc(O)cc1O`: 36.5 µM; for `O=C(CSCC(=O)Nc1ccccc1)N/N=C/c1c(O)ccc2ccccc12`: 4.45 µM; for `CCOC(=O)c1cc2c(ccn2C)n1CC(=O)N1CCN(c2ccccc2)CC1`: > 35 µM (inactive).
In the case of `Cn1cccc1C(=O)NC(=O)COC(=O)c1cc(S(=O)(=O)N2CCCCC2)ccc1Cl`, the EC50 is > 35 µM (inactive).
The value for `COc1cccc2sc(Nc3nc(-c4ccccn4)cs3)nc12` was 6.13 µM.
The value for `O=C(NNC(=O)C(O)(c1ccccc1)c1ccccc1)C1CC1` was > 35 µM (inactive); that for `O=C(N/N=C/c1ccc(O)cc1O)c1ccc(CN2C(=O)c3cccc4cccc2c34)cc1` was 19.6 µM.
For `COCCN=c1scc(-c2cc(OC)c(OC)c(OC)c2)n1/N=C/c1c(C)[nH]c2ccccc12`, the EC50 was > 35 µM (inactive).
The value for `Cc1ccc2c(c1)C1NC(=S)NC(C)(O2)C1C(=O)Nc1ccc(Cl)cc1` (stereo not given) was > 35 µM (inactive); that for `CN(C)c1ccc(S(=O)(=O)NCC(=O)OCC(=O)Nc2cc(Cl)cc(Cl)c2)cc1[N+](=O)[O-]` was > 35 µM (inactive).
Take `COc1ccc2c(c1)c(C(=O)CN1CCc3ccccc3C1)c(C)n2C`: the EC50 is > 35 µM (inactive).
Take `CCN(CC)CCNC1=CC(=O)OC12CCCCC2`: the EC50 is > 35 µM (inactive).
The same measure for `O=C(NC1CCCC1)c1cc(-c2cccs2)on1`: 7.26 µM; for `COc1ccc(-n2c(C)csc2=S)cc1`: > 35 µM (inactive).
In the case of `CCCOc1cccc(C2C(C(=O)c3ccco3)=C(O)C(=O)N2CCCn2ccnc2)c1` (stereo not given), the EC50 was > 35 µM (inactive).
Turning to `CC1(C)CC(=O)C(C=NCCN2CCN(C(=S)Nc3cccc(Cl)c3)CC2)=C(O)C1`, the EC50 is > 35 µM (inactive).
In the case of `O=C(N/N=C/c1ccc(F)cc1)c1cc(-c2ccc3c(c2)OCO3)n[nH]1`, the EC50 is 16.2 µM.
On to `CCOC(=O)C1(C)NC(c2ccc(OC)cc2OC)C2C(=O)N(CC)C(=O)C21` (stereo not given), for which the EC50 was > 35 µM (inactive).
The same measure for `O=C(CSc1nnc(-c2ccncc2)o1)N1CCCCCC1`: > 35 µM (inactive).
